In article PMC8306930, “A Comparative Analysis of the In Vitro Anticancer Activity of Iridium(III) {η^5-C5Me4R} Complexes with Variable R Groups” (International Journal of Molecular Sciences, 2021):

Columns and labels:
[1] = system: SW620 human colorectal adenocarcinoma cells; experiment: MTT viability assay, SW620; type: cell-based; details: SW620, 72 h exposure, mean ± SD
Excerpt: (§1) The rat astrocytoma C6 cell line and murine melanoma B16 cell line were kindly gifted by Dr. L. Harhaji–Trajkovic, Institute for Biological Research “Sinisa Stankovic”—National Institute of Republic of Serbia (IBISS), and from Dr. Sinisa Radulovic (Institute for Oncology and Radiology of Serbia), respectively. Human colorectal (SW620 and HCT116), breast (MCF-7), and ovarian (A2780) cancer cell lines and non-malignant fibroblast cell line (MRC5) were purchased from the American Type Culture Collection (ATCC, Manassas, Virginia, USA). […] For viability assays, cells were seeded in listed densities/well: B16 and C6: 3 × 10^3; SW620: 9 × 10^3; A2780 and HCT116: 5 × 10^3; MCF-7: 8 × 10^3 and MRC5: 7 × 10^3. For flow cytometry, A2780 cells were seeded at 2 × 10^5 density/well in 6-well plates. Peritoneal macrophages were collected from the peritoneal cavity of C57BL/6 mice from the animal facility of IBISS by cavity lavage with ice-cold PBS. […] Macrophages were counted, seeded at 2 × 10^5 cells/well in 96-well plates for viability assay, and then left for 2 h to adhere. Before treatment, non-adherent cells were removed. The handling of animals and protocol for obtaining macrophages is in the agreement with the rules of the European Union and approved by the Institutional Animal Care and Use Committee at IBISS (No. 02-09/16).
(§2) Stock solutions of 1b, 1c, 1d, and 1e were prepared in ethanol at concentration of 20 mM and kept at −20 °C, while 10 mM stock solution of cisplatin was prepared in DMF just before the usage. Desired final concentrations were obtained by dilution in culture medium.
(§3) Cells were treated with various concentrations (up to 50 or 100 µM) of the above-mentioned complexes for 72 h. For the detection of mitochondrial respiration, cells were cultivated in the presence of MTT staining solution (0.5 mg/mL) for approximately 1 h at 37 °C. The dye was then discarded, and the formed formazan crystals (purple) were dissolved in DMSO. For an evaluation of viable attached cells, cells were fixed with 4% PFA for 10 min at room temperature, and subsequently stained for 15 min with 0.02% CV solution. […] The absorbance was measured with an automated microplate reader at 540 nm, with a reference wavelength of 670 nm. The IC50 values were calculated using a four-parameter logistic function and presented as mean ± SD from three independent experiments.

[2] = system: MCF-7 human breast cancer cells; experiment: CV viability assay, MCF-7; type: cell-based; details: MCF-7, 72 h exposure, mean ± SD
Excerpt: as §1, §2, §3

[3] = system: C6 rat glioma cells; experiment: CV viability assay, C6; type: cell-based; details: C6, 72 h exposure, mean ± SD
Excerpt: as §1, §2, §3

[4] = system: A2780 cells; experiment: Intracellular nitric oxide, DAF-FM flow cytometry; type: cell-based, human; details: A2780, IC50 doses, 48 h, with respect to untreated cultures
Experimental: (§4) Experiments were carried out in three independent replicates.

[5] = system: A2780 cells; experiment: Autophagosomes, acridine orange flow cytometry; type: cell-based, human; details: A2780, IC50 doses, 48 h, AO
Experimental: as §4

[6] = Stability in RPMI-1640 cell culture medium by UV-Vis; type: physicochemical; details: 37 °C, 24 h
[7] = system: MCF-7 human breast cancer cells; experiment: MTT viability assay, MCF-7; type: cell-based; details: MCF-7, 72 h exposure, mean ± SD
Excerpt: as §1, §2, §3

[8] = system: A2780 cells; experiment: Cell proliferation, CFSE flow cytometry; type: cell-based, human; details: A2780, IC50 doses, 72 h of incubation
Experimental: as §4

[9] = system: A2780 human ovarian cancer cells; experiment: CV viability assay, A2780; type: cell-based; details: A2780, 72 h exposure, mean ± SD
Excerpt: as §1, §2, §3

[10] = system: B16 mouse melanoma cells; experiment: CV (crystal violet) viability assay, B16; type: cell-based; details: B16, 72 h exposure, mean ± SD
Excerpt: as §1, §2, §3

[11] = system: MRC5 human fibroblast cells; experiment: MTT viability assay, MRC5; type: cell-based; details: MRC5, 72 h exposure, mean ± SD
Excerpt: as §1, §2, §3

[12] = system: A2780 cells; details: A2780, IC50 doses, 48 h, AnnV/PI
Experimental: as §4

[13] = system: HCT116 human colorectal carcinoma cells; experiment: MTT viability assay, HCT116; type: cell-based; details: HCT116, 72 h exposure, mean ± SD
Excerpt: as §1, §2, §3

[14] = system: A2780 cells; experiment: Senescence, FDG assay of beta galactosidase activity, flow cytometry; type: cell-based, human; details: A2780, IC50 doses, 48 h, in comparison to the control
Experimental: as §4

[15] = system: MRC5 human fibroblast cells; experiment: CV viability assay, MRC5; type: cell-based; details: MRC5, 72 h exposure, mean ± SD
Excerpt: as §1, §2, §3

[16] = system: primary mouse peritoneal cells; experiment: Viability of primary mouse peritoneal cells (macrophages); type: cell-based
Excerpt: The rat astrocytoma C6 cell line and murine melanoma B16 cell line were kindly gifted by Dr. L. Harhaji–Trajkovic, Institute for Biological Research “Sinisa Stankovic”—National Institute of Republic of Serbia (IBISS), and from Dr. Sinisa Radulovic (Institute for Oncology and Radiology of Serbia), respectively. Human colorectal (SW620 and HCT116), breast (MCF-7), and ovarian (A2780) cancer cell lines and non-malignant fibroblast cell line (MRC5) were purchased from the American Type Culture Collection (ATCC, Manassas, Virginia, USA). […] For viability assays, cells were seeded in listed densities/well: B16 and C6: 3 × 10^3; SW620: 9 × 10^3; A2780 and HCT116: 5 × 10^3; MCF-7: 8 × 10^3 and MRC5: 7 × 10^3. For flow cytometry, A2780 cells were seeded at 2 × 10^5 density/well in 6-well plates. […] Macrophages were counted, seeded at 2 × 10^5 cells/well in 96-well plates for viability assay, and then left for 2 h to adhere. […]
Cells were treated with various concentrations (up to 50 or 100 µM) of the above-mentioned complexes for 72 h. […] The absorbance was measured with an automated microplate reader at 540 nm, with a reference wavelength of 670 nm. The IC50 values were calculated using a four-parameter logistic function and presented as mean ± SD from three independent experiments.

[17] = system: A2780 human ovarian cancer cells; experiment: MTT viability assay, A2780; type: cell-based; details: A2780, 72 h exposure, mean ± SD
Excerpt: as §1, §2, §3

[18] = system: A2780 cells; experiment: Mitochondrial membrane potential, DiOC6(3) flow cytometry; type: cell-based, human; details: A2780, IC50 doses, 24 h, in comparison with untreated cells
Experimental: as §4

[19] = system: B16 mouse melanoma cells; experiment: MTT viability assay, B16; type: cell-based; details: B16, 72 h exposure, mean ± SD
Excerpt: as §1, §2, §3

[20] = Octanol/water partition coefficient, shake-flask method with UV-Vis; details: 21 °C, mean ± standard deviation
Experimental: (a) Octanol/water partition coefficients (Log Pow). Partition coefficients (Pow; IUPAC: KD partition constant), defined as Pow = corg/caq, where corg and caq are molar concentrations of the selected compound in the organic and aqueous phase, respectively, were determined by the shake-flask method and UV-Vis measurements. Deionized water and 1-octanol were vigorously stirred for 24 h, to enable saturation of both phases, then separated by centrifugation. A stock solution of the selected iridium compound (ca. 2 mg) was prepared by first adding acetone (50 μL, to help solubilization), followed by water-saturated octanol (2.5 mL). The solution was diluted with water-saturated octanol (ca. 1:3 v/v ratio, cIr ≈ 10^−4 M, so that 1.5 ≤ A ≤ 2.0 at λmax) and its UV-Vis spectrum was recorded (A^0org). An aliquot of the solution (Vorg = 1.2 mL) was transferred into a test tube and octanol-saturated water (Vorg = Vaq = 1.2 mL) was added. The mixture was vigorously stirred for 30 min at 21 °C then centrifuged (5000 rpm, 5 min). The UV-Vis spectrum of the organic phase was recorded (A^forg) and the partition coefficient was calculated as Pow = A^forg/(A^0org − A^forg) where A^0org and A^forg are the absorbance in the organic phase before and after partition with the aqueous phase, respectively. The wavelength of the maximum absorption of each compound (ca. 300 nm) was used for UV-Vis quantitation.

[21] = system: HCT116 human colorectal carcinoma cells; experiment: CV viability assay, HCT116; type: cell-based; details: HCT116, 72 h exposure, mean ± SD
Excerpt: as §1, §2, §3

[22] = system: A2780 cells; experiment: ROS/RNS, DHR123 flow cytometry; type: cell-based, human; details: A2780, IC50 doses, 48 h, DHR123, with respect to untreated cultures
Experimental: as §4

[23] = system: C6 rat glioma cells; experiment: MTT viability assay, C6; type: cell-based; details: C6, 72 h exposure, mean ± SD
Excerpt: as §1, §2, §3

[24] = Stability in D2O mixtures by 1H NMR; type: physicochemical; details: DMSO-d6/D2O 2:1, 72 h at 37 °C, 1H NMR, dimethyl sulfone standard
Experimental: Complexes were dissolved in acetone-d6/D2O 2:1 (1b,d), DMSO-d6/D2O 2:1 (2a–d and 3), or methanol-d4/D2O 2:1 (1c) ([Ir] ≈ 10^−3 mol L^−1), then dimethyl sulfone (0.05 mL, 0.164 mmol) was added as internal standard. The mixtures were filtered through a celite pad, and the filtrated solutions were analyzed by ^1H NMR spectroscopy.
The solutions were then stored for 72 h at 37 °C, and new NMR analyses were subsequently performed.

[25] = system: SW620 human colorectal adenocarcinoma cells; experiment: CV viability assay, SW620; type: cell-based; details: SW620, 72 h exposure, mean ± SD
Excerpt: as §1, §2, §3

SMILES | IC50 [1] [µM] | IC50 [2] [µM] | IC50 [3] [µM] | Stability in RPMI-1640 cell culture medium [6] | IC50 [7] [µM] | IC50 [9] [µM] | IC50 [10] [µM] | IC50 [11] [µM] | IC50 [13] [µM] | IC50 [15] [µM] | IC50 [17] [µM] | IC50 [19] [µM] | Log Pow [20] | IC50 [21] [µM] | IC50 [23] [µM] | Fraction of unaltered compound [24] [%] | IC50 [25] [µM] | other results
Cc1c(C)c(C)[c-](-c2ccc(F)cc2)c1C.[Cl-].[Ir+3].[c-]1ccccc1-c1ccccn1 [Complex 2d, (1-(4-fluorobenzene)-2,3,4,5-tetramethylcyclopentadienyl)(2-phenylpyridine)iridium(III)chloride] | 2 ± 0.1 | 6.8 ± 0.7 | 2.1 ± 0.1 | did not change | 2.5 ± 0.2 | 1.8 ± 0.1 | 1.7 ± 0.4 | 2.4 ± 0.3 | 1.3 ± 0.3 | 2.1 ± 0.6 | 1.3 ± 0.1 | 1.2 ± 0.2 | 1.3 ± 0.2 | 5.3 ± 1.3 | 2 ± 0.01 | 97 | 2 ± 0.2 | Increase of intracellular level of NO [4]: 38%; High percentage of autophagosomes [5]: not recognized; Effect on cell proliferation [8]: inhibition of cell proliferation; Induction of apoptotic cell death [12]: modest induction; Increase of beta galactosidase activity [14]: 31%; Effect on viability of primary mouse peritoneal cells [16]: did not affect viability; Mitochondrial membrane hyperpolarization [18]: 48.6%; Increase of intracellular levels of H2O2, HOCl and ONOO− (in total) [22]: 36.3%
CCC[c-]1c(C)c(C)c(C)c1C.[Cl-].[Ir+3].[c-]1ccccc1-c1ccccn1 [Complex 2c, (1-(propyl)-2,3,4,5-tetramethylcyclopentadienyl)(2-phenylpyridine)iridium(III)chloride] | 10.4 ± 0.4 | 17.2 ± 0.1 | 5.9 ± 0.5 | did not change | 12 ± 1.3 | 7.2 ± 0.8 | 8 ± 2 | 3.7 ± 0.2 | 8 ± 0.6 | 2.7 ± 0.1 | 7.3 ± 0.6 | 6.7 ± 0.6 | 1.5 ± 0.2 | 13 ± 1.1 | 4 ± 0.3 | 98 | 12.4 ± 1.5 | 
